# Numbered stars: 1 amine (or outer) side, 2 acyl side, 3 side chain; on linkers, the order of the positions; unused ones are H or OH. Square brackets hold non-standard residues; d marks the D form. Peptide text beside a SMILES is read from it. * marks the point of attachment. DOTA = O=C(O)CN1CCN(CC(=O)O)CCN(CC(=O)*)CCN(CC(=O)O)CC1; NMeH = CN[C@@H](Cc1c[nH]cn1)C(=O)O; X1 = O=C(CN1CCC(N[*:1])CC1)[*:2]; Tle = CC(C)(C)[C@H](N)C(=O)O; Thz = O=C(O)[C@@H]1CSCN1
# Legend:
# [1] = Ex vivo biodistribution in PC-3 tumor-bearing mice; conditions: mouse; for tissue uptake at 120 h: 120 h post-injection; for tissue uptake at 4 h: 4 h post-injection; for tissue uptake at 24 h: 24 h post-injection; for tissue uptake at 72 h: 72 h post-injection
# Protocol: (§1) SPECT/CT imaging experiments were performed using an MILabs (Houten, The Netherlands) U-SPECT-II/CT scanner with a custom-made ultra-high-sensitivity big mouse collimator (2 mm pinhole size) following previously reported procedures. […] Male NOD.Cg-Rag1^tm1Mom Il2rg^tm1Wjl/SzJ (NRG) mice were used in these experiments because of their immunodeficient characteristics and excellent radiation tolerance. Mice were anaesthetized and subcutaneously implanted with 5 × 10^6 PC-3 prostate cancer cells (100 µL; 1:1 PBS/Matrigel) behind the left shoulder. SPECT/CT imaging and biodistribution studies were performed once the tumors reached a diameter of 5–8 mm, typically after approximately 4 weeks of growth.
# (§2) For ex vivo biodistribution studies, the mice were injected with ~2–6 MBq of the radioligand. […] Blocking study was conducted at 1 h post-injection via co-injection of the radioligand with 100 μg of [D-Phe^6,Leu-NHEt^13,des-Met^14]Bombesin(6–14). Organs/tissues of interested were collected, weighed, and measured using an automatic gamma counter.
# PC-3 tumor-bearing mice = assay: Ex vivo biodistribution in PC-3 tumor-bearing mice
# Protocol: as §1, §2
# [2] = large intestine, Uptake in large intestine
# [3] = small intestine, Uptake in small intestine
# [4] = 1 h blocked (co-injected with 100 µg [D-Phe6,Leu-NHEt13,des-Met14]Bombesin(6-14))
# [5] = 1 h post-injection, 100 µg [D-Phe6,Leu-NHEt13,des-Met14]Bombesin(6–14)
smiles,measurement,setting,value
"CC(C)C[C@H](NC(=O)[C@H](Cc1cnc[nH]1)N(C)C(=O)CNC(=O)[C@@H](NC(=O)[C@H](C)NC(=O)[C@H](Cc1c[nH]c2ccccc12)NC(=O)[C@H](Cc1c[nH]cn1)NC(=O)[C@@H](Cc1ccccc1)NC(=O)CN1CCC(NC(=O)CN2CCN(CC(=O)O)CCN(CC(=O)O)CCN(CC(=O)O)CC2)CC1)C(C)(C)C)C(=O)N1CSC[C@H]1C(N)=O [[^177Lu]Lu-LW01142, metal not drawn] ({DOTA}-[X1][dF]HWA[Tle]G[NMeH]L[Thz]-NH2)",tissue uptake at 120 h,"[1]; kidneys, Uptake in kidneys",0.3 ± 0.07 %ID/g
same,tissue uptake at 1 h,"[1]; large intestine, 100 ug, Uptake in large intestine, 1 h blocked (co-injected with 100 µg [D-Phe6,Leu-NHEt13,des-Met14]Bombesin(6-14))",0.31 ± 0.08 %ID/g
same,tissue uptake at 4 h,[1]; [2],0.81 ± 0.21 %ID/g
same,tissue uptake at 24 h,[1]; [2],0.3 ± 0.12 %ID/g
same,tissue uptake at 72 h,[1]; [2],0.13 ± 0.05 %ID/g
same,tissue uptake at 120 h,[1]; [2],0.07 ± 0.04 %ID/g
same,tissue uptake at 1 h,"[1]; liver, 100 ug, Uptake in liver, 1 h blocked (co-injected with 100 µg [D-Phe6,Leu-NHEt13,des-Met14]Bombesin(6-14))",0.57 ± 0.15 %ID/g
same,tissue uptake at 4 h,"[1]; liver, Uptake in liver",0.33 ± 0.05 %ID/g
same,tissue uptake at 24 h,"[1]; liver, Uptake in liver",0.28 ± 0.07 %ID/g
same,tissue uptake at 120 h,"[1]; liver, Uptake in liver",0.08 ± 0.02 %ID/g
same,tissue uptake at 1 h,"[1]; lungs, Uptake in lungs, 1 h post-injection",1.53 ± 0.19 %ID/g
same,tissue uptake at 4 h,"[1]; lungs, Uptake in lungs",0.57 ± 0.21 %ID/g
same,tissue uptake at 24 h,"[1]; lungs, Uptake in lungs",0.16 ± 0.08 %ID/g
same,tissue uptake at 72 h,"[1]; lungs, Uptake in lungs",0.03 ± 0.01 %ID/g
same,tissue uptake at 120 h,"[1]; lungs, Uptake in lungs",0.03 ± 0.01 %ID/g
same,tissue uptake at 1 h,"[1]; muscle, 100 ug, Uptake in muscle, 1 h blocked (co-injected with 100 µg [D-Phe6,Leu-NHEt13,des-Met14]Bombesin(6-14))",0.23 ± 0.11 %ID/g
same,tissue uptake at 1 h,"[1]; muscle, Uptake in muscle, 1 h post-injection",0.22 ± 0.04 %ID/g
same,tissue uptake at 4 h,"[1]; muscle, Uptake in muscle",0.03 ± 0.01 %ID/g
same,tissue uptake at 24 h,"[1]; muscle, Uptake in muscle",0.01 %ID/g
same,tissue uptake at 72 h,"[1]; muscle, Uptake in muscle",0.01 %ID/g
same,tissue uptake at 1 h,"[1]; pancreas, 100 ug, Uptake in pancreas, 1 h blocked (co-injected with 100 µg [D-Phe6,Leu-NHEt13,des-Met14]Bombesin(6-14))",1.88 ± 0.42 %ID/g
same,tissue uptake at 4 h,"[1]; pancreas, Uptake in pancreas",1.57 ± 0.28 %ID/g
same,tissue uptake at 24 h,"[1]; pancreas, Uptake in pancreas",~1 %ID/g
same,tissue uptake at 72 h,"[1]; pancreas, Uptake in pancreas",0.68 ± 0.1 %ID/g
same,tissue uptake at 120 h,"[1]; pancreas, Uptake in pancreas",0.48 ± 0.08 %ID/g
same,tissue uptake at 1 h,"[1]; small intestine, 100 ug, Uptake in small intestine, 1 h blocked (co-injected with 100 µg [D-Phe6,Leu-NHEt13,des-Met14]Bombesin(6-14))",0.54 ± 0.1 %ID/g
same,tissue uptake at 1 h,"[1]; small intestine, Uptake in small intestine, 1 h post-injection",1.32 ± 0.42 %ID/g
same,tissue uptake at 4 h,[1]; [3],0.29 ± 0.08 %ID/g
same,tissue uptake at 24 h,[1]; [3],0.14 ± 0.03 %ID/g
same,tissue uptake at 72 h,[1]; [3],0.05 ± 0.01 %ID/g
same,tissue uptake at 120 h,[1]; [3],0.02 ± 0.02 %ID/g
same,tissue uptake at 1 h,"[1]; spleen, 100 ug, Uptake in spleen, 1 h blocked (co-injected with 100 µg [D-Phe6,Leu-NHEt13,des-Met14]Bombesin(6-14))",0.4 ± 0.04 %ID/g
same,tissue uptake at 24 h,"[1]; spleen, Uptake in spleen",0.14 ± 0.05 %ID/g
same,tissue uptake at 72 h,"[1]; spleen, Uptake in spleen",0.09 ± 0.02 %ID/g
same,tissue uptake at 120 h,"[1]; spleen, Uptake in spleen",0.09 ± 0.02 %ID/g
same,tissue uptake at 1 h,"[1]; stomach, Uptake in stomach, 1 h post-injection",0.6 ± 0.24 %ID/g
same,tissue uptake at 4 h,"[1]; stomach, Uptake in stomach",0.11 ± 0.04 %ID/g
same,tissue uptake at 24 h,"[1]; stomach, Uptake in stomach",0.16 ± 0.07 %ID/g
same,tissue uptake at 120 h,"[1]; stomach, Uptake in stomach",0.02 ± 0.01 %ID/g
same,tissue uptake at 1 h,"[1]; testes, 100 ug, Uptake in testes, 1 h blocked (co-injected with 100 µg [D-Phe6,Leu-NHEt13,des-Met14]Bombesin(6-14))",0.48 ± 0.16 %ID/g
same,tissue uptake at 4 h,"[1]; testes, Uptake in testes",0.05 ± 0.01 %ID/g
same,tissue uptake at 24 h,"[1]; testes, Uptake in testes",0.03 ± 0.01 %ID/g
same,tissue uptake at 72 h,"[1]; testes, Uptake in testes",0.02 %ID/g
same,tissue uptake at 120 h,"[1]; testes, Uptake in testes",0.01 %ID/g
same,Uptake in lungs,PC-3 tumor-bearing mice; [4],1.06 ± 0.27 %ID/g
same,Uptake in stomach,PC-3 tumor-bearing mice; [4],0.17 ± 0.06 %ID/g
same,Uptake in bone,PC-3 tumor-bearing mice; 1 h post-injection,0.15 ± 0.03 %ID/g
same,Uptake in kidneys,PC-3 tumor-bearing mice; 1 h post-injection,6.86 ± 0.81 %ID/g
same,Uptake in large intestine,PC-3 tumor-bearing mice; 1 h post-injection,0.76 ± 0.16 %ID/g
same,Uptake in liver,PC-3 tumor-bearing mice; 1 h post-injection,0.71 ± 0.08 %ID/g
same,Uptake in pancreas,PC-3 tumor-bearing mice; 1 h post-injection,4.45 ± 0.83 %ID/g
same,Uptake in spleen,PC-3 tumor-bearing mice; 1 h post-injection,0.47 ± 0.07 %ID/g
same,Uptake in testes,PC-3 tumor-bearing mice; 1 h post-injection,0.32 ± 0.18 %ID/g
same,reduction of average pancreas uptake by co-injection of blocker,PC-3 tumor-bearing mice; [5],58%
same,reduction of average tumor uptake by co-injection of blocker,PC-3 tumor-bearing mice; [5],62%
same,Uptake in heart,PC-3 tumor-bearing mice; 4 h post-injection,0.06 ± 0.01 %ID/g
same,Uptake in kidneys,PC-3 tumor-bearing mice; 4 h post-injection,5.51 ± 0.54 %ID/g
same,Uptake in spleen,PC-3 tumor-bearing mice; 4 h post-injection,0.17 ± 0.04 %ID/g
same,Uptake in pancreas,PC-3 tumor-bearing mice; 24 h post-injection,1.06 ± 0.26 %ID/g
same,Uptake in liver,PC-3 tumor-bearing mice; 72 h post-injection,0.12 ± 0.03 %ID/g
same,Uptake in stomach,PC-3 tumor-bearing mice; 72 h post-injection,0.10 ± 0.05 %ID/g
same,Uptake in adrenal glands,PC-3 tumor-bearing mice; 120 h post-injection,0.17 ± 0.09 %ID/g
same,uptake in PC-3 tumor xenografts cleared within 24 h,PC-3 tumor-bearing mice; relative to 1 h uptake,47%

# From PMC12030706, “Novel ^177Lu-Labeled [Thz^14]Bombesin(6–14) Derivatives with Low Pancreas Accumulation for Targeting Gastrin-Releasing Peptide Receptor-Expressing Cancer” (Pharmaceuticals, 2025)
